# Activity calls are given as the source filed them. No cut-off for these calls is given here.
# How the values were obtained:
# [1] = molecular target: Beta-1 adrenergic receptor (Homo sapiens) (UniProt P08588); test: Inhibition of adrenergic b1 receptor at 1 uM
# [2] = molecular target: Muscarinic acetylcholine receptor M4 (Homo sapiens) (UniProt P08173); test: Inhibition of muscarinic M4 receptor at 1 uM
# Homo sapiens [3] = organism: Homo sapiens; test: Inhibition of muscle nicotinic receptor at 1 uM
# Homo sapiens [4] = organism: Homo sapiens; test: Inhibition of N-type calcium channel at 1 uM
# [5] = Permeability from apical to basolateral side of the Caco-2 cell membrane at 1 uM in presence of calcium; format: ADME, cell-based; conditions: human
# [6] = Intrinsic clearance in dog microsomes; format: ADME, Canis lupus familiaris, Liver, Microsome
# [7] = Intrinsic clearance in monkey microsomes; format: ADME, Macaca mulatta, Microsome; conditions: rhesus monkey
# Plasma = test: Percentage unbound ligand in rat blood at 1 uM; format: ADME, cell-free
# [8] = Ratio of drug level in blood to plasma in dog; format: ADME, cell-free, Canis lupus familiaris; conditions: blood and plasma, read-out: BPR
# [9] = Plasma clearance in rat at 0.3 mg/kg, iv; format: ADME, organism-based; design: dose 0.3 mg/kg, route intravenous
# [10] = Half life in Beagle dog at 0.5 mg/kg, iv; format: ADME, organism-based, Canis lupus familiaris; design: dose 0.5 mg/kg, route intravenous; conditions: in vivo
# [11] = AUC (0 to t) in rat at 1 mg/kg, iv; format: ADME, organism-based; design: dose 1 mg/kg, route intravenous; conditions: plasma
# [12] = AUC (0 to t) in Beagle dog at 0.5 mg/kg, iv; format: ADME, organism-based, Canis lupus familiaris; design: dose 0.5 mg/kg, route intravenous; conditions: plasma
# [13] = AUC (0 to infinity) in rat at 5 mg/kg, iv; format: ADME, organism-based; design: time infinity, dose 5 mg/kg, route intravenous; conditions: plasma
# [14] = Half life in rat at 30 mg/kg, po; format: ADME, organism-based; design: dose 30 mg/kg, route oral; conditions: in vivo
# [15] = Half life in Beagle dog at 0.5 mg/kg, po; format: ADME, organism-based, Canis lupus familiaris; design: dose 0.5 mg/kg, route oral; conditions: in vivo
# [16] = Cmax in rat at 3 mg/kg, po; format: ADME, organism-based; design: dose 3 mg/kg, route oral; conditions: in vivo
# [17] = Tmax in portal cannulated Beagle dog at 1 mg/kg, po; format: ADME, organism-based, Canis lupus familiaris; design: dose 1 mg/kg, route oral; conditions: in vivo
# [18] = Bioavailability in Beagle dog at 5 mg/kg, po; format: ADME, organism-based, Canis lupus familiaris; conditions: in vivo
# Canis familiaris = test: Decrease in food intake in obese Beagle dog at 0.39 mg/kg, po after 3 months; format: functional, Canis lupus familiaris; design: scale not given: the % may be the effect or the level left
# [19] = Permeability from apical to basolateral side of the Caco-2 cell membrane at 10 uM in presence of calcium; format: ADME, cell-based; conditions: human
# Cytochrome P450 1A2 = Cytochrome P450 1A2 (Homo sapiens, UniProt P05177); test: Inhibition of CYP1A2; format: ADME
# Chain of Cytochrome P450 1A2 (P05177 whole entry): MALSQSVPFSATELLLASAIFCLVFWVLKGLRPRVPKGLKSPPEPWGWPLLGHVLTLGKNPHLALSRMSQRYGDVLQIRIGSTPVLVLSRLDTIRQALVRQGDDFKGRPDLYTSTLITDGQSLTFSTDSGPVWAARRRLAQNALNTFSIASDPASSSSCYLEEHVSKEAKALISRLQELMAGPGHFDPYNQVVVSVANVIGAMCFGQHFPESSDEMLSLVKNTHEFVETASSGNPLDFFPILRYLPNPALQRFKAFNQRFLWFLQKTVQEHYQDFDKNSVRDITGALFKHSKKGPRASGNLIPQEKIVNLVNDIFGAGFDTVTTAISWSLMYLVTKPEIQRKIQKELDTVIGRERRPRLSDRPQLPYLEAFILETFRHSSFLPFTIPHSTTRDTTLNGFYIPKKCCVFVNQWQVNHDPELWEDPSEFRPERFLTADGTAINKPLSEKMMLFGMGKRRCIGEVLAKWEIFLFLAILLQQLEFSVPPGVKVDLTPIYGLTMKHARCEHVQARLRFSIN
# Chain of Muscarinic acetylcholine receptor M4 (Homo sapiens) (P08173 whole entry): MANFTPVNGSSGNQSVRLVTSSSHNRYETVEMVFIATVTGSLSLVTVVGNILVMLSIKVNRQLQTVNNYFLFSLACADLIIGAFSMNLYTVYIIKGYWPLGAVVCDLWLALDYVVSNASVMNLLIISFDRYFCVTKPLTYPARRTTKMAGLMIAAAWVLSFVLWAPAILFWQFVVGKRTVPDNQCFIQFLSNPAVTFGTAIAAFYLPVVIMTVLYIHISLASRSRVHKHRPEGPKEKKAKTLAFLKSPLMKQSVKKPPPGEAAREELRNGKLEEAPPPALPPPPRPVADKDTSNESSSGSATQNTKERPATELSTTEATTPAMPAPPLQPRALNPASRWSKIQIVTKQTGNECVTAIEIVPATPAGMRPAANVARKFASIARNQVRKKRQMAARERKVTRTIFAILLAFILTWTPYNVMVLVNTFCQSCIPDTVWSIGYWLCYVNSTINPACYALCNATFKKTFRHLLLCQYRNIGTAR
# Chain of Beta-1 adrenergic receptor (Homo sapiens) (P08588 whole entry, looked up): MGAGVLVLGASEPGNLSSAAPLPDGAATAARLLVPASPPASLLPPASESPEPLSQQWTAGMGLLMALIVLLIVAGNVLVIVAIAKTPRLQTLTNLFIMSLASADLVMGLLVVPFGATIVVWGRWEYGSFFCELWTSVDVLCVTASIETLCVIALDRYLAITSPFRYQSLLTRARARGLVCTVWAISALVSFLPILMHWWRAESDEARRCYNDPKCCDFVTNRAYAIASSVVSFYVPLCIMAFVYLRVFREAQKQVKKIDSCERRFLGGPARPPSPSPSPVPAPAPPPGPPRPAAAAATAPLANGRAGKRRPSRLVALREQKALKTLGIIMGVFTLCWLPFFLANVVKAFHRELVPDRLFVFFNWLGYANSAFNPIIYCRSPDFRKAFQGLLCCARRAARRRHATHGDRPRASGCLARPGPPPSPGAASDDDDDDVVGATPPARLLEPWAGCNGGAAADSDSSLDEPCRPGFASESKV
compound,measurement,setting,value
CN(Cc1ccccc1)C(=O)[C@@H](NC(=O)c1cc2cc(NC(=O)c3ccccc3-c3ccc(C(F)(F)F)cc3)ccc2n1C)c1ccccc1 [DIRLOTAPIDE],Activity,[1],inactive
same,Activity,[2],inactive
same,Activity,Homo sapiens [3],inactive
same,Activity,Homo sapiens [4],inactive
same,Papp A→B at 1 µM,[5],0.6 ×10⁻⁶ cm/s
same,CLint scaled,[6],1090 mL/min/kg
same,CLint scaled,[7],835 mL/min/kg
same,Fu,Plasma,0.032%
same,blood plasma ratio,[8],0.54
same,clearance,[9],92 mL/min/kg
same,half-life,[10],5 h
same,AUC(0-t),[11],485 ng·h/mL
same,AUC(0-t),[12],1490 ng·h/mL
same,AUC(0-inf),[13],5890 ng·h/mL
same,half-life,[14],6.3 h
same,half-life,[15],14.1 h
same,Cmax,[16],4.7 ng/mL
same,Tmax,[17],6.3 h
same,bioavailability,[18],12%
same,Activity,Canis familiaris,54%
same,Papp A→B at 10 µM,[19],0.4 ×10⁻⁶ cm/s
same,IC50,Cytochrome P450 1A2,> 30 µM
